According to patent US20100062465A1, “Detection of Histone Deacetylase Inhibition” (priority 2006, published 2010):
Where a name gives a salt, the structure may show the parent alone.

What was measured:
[1] = biological target: T1, recombinant HDAC8 (Homo sapiens, UniProt Q9BY41); experiment: 19F MRS study of BLT cleavage by recombinant HDAC8; type: biochemical; details: 0.6 mM BLT, 28U HDAC-8
T1 construct: purchased Biomol
T1 sequence (Q9BY41 1-377): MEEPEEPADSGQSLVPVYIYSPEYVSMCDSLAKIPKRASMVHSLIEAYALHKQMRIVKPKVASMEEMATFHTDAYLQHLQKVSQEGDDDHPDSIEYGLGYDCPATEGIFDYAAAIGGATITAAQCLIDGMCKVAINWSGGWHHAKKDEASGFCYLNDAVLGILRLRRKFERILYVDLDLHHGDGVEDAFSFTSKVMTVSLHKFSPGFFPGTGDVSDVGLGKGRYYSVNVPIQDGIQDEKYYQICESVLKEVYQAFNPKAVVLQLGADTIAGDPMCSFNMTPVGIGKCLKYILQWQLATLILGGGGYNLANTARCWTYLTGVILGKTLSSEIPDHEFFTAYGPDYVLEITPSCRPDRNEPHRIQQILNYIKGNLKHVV
Protocol: To confirm that MRS can be used to monitor cleavage of the HDAC substrate, 0.6 mM BLT (Advance Chem-Tech, KY USA) was incubated alone or with 28U recombinant HDAC-8 (Biomol PA) in a total volume of 500 μl HDAC assay buffer (Biomol PA. USA, composed of 25 mM Tris/Cl, 137 mM NaCl, 2.7 mM KCl, 1 mM MgCl2 and formulated to maintain HDAC activity). ^19F MRS was used to monitor the decrease in BLT and buildup of the cleavage product trifluoroacetate (TFA) by acquiring ^1H decoupled spectra at 10 min intervals on an Avance DPX 300 Bruker spectrometer (Bruker Biospin, Germany) using a 30 deg. flip angle, 3 s relaxation delay and 128 scans. A sealed insert containing C6F6 served as a quantification and chemical shift reference (−164.9 ppm relative to CFCl3).

[2] = Solubility in growth medium; type: physicochemical; details: dissolved in DMSO first
Protocol: Note that controls were treated with DMSO in order to clearly identify effects which are due to the compound being investigated rather than its vehicle (DMSO). FSAHA dose was based on previous findings (Butler L M, Agus D B, Scher H I, et al. Suberoylanilide hydroxamic acid, an inhibitor of histone deacetylase, suppresses the growth of prostate cancer cells in vitro and in vivo. Cancer Res 2000 September 15;60(18):5165-70).

CC(C)(C)OC(=O)N[C@@H](CCCCNC(=O)C(F)(F)F)C(=O)O [BLT, Boc-Lys-TFA-OH]
Cleavage by recombinant HDAC8 monitored by 19F MRS [1]: substrate of HDAC8 | Solubility in growth medium [2]: low solubility
